Assay results taken from publication PMC9537541, “Synthesis and anticancer activity of new benzensulfonamides incorporating s-triazines as cyclic linkers for inhibition of carbonic anhydrase IX” (Scientific Reports, 2022).
Counter-ions that a name gives are not always drawn.

Tests used:
[1] = biological target: T1, hCA I (Homo sapiens, UniProt P00915); assay: stopped-flow CO2 hydrase assay, hCA I; assay type: biochemical; conditions: stopped flow technique, mean from 3 different assays
T1 construct: made in house
Procedure: (§1) Target compounds of series (A) and (B) were screened as inhibitors concerning the physiologically relevant hCAs; cytosolic isoforms (hCA I and II) in addition to the transmembrane tumor related isoforms (hCA IX and XII) via a stopped-flow assay of carbonic anhydrase catalyzed CO2 hydration. Acetazolamide (AAZ), CA I drug, was also incorporated in the assays as a standard drug. […] Four CA isoforms inhibition activity was measured by assaying CA catalyzed CO2 hydration via an applied photophysics stopped-flow instrument. PRISM 3 and the Cheng-prusoff equation were used to determine the inhibition constant by non-linear least square methods as reported, and represent the mean from three different determination at least. All tested carbonic anhydrase isoforms were recombinant proteins prepared in lab as described earlier,[57].

[2] = biological target: T2, hCA II (Homo sapiens, UniProt P00918); assay: stopped-flow CO2 hydrase assay, hCA II; assay type: biochemical; conditions: for Ki: stopped flow technique, mean from 3 different assays
T2 construct: made in house
Procedure: as §1

[3] = biological target: T3, hCA IX (Homo sapiens, UniProt Q16790); assay: stopped-flow CO2 hydrase assay, hCA IX; assay type: biochemical; conditions: for Selectivity index (SI) I/IX: hCA IX over off-target hCA I; for Selectivity index (SI) II/IX: hCA IX over off-target hCA II; for Ki: stopped flow technique, mean from 3 different assays
T3 construct: made in house
Procedure: as §1

[4] = biological target: T4, hCA XII (Homo sapiens, UniProt O43570); assay: stopped-flow CO2 hydrase assay, hCA XII; assay type: biochemical; conditions: for Selectivity index (SI) I/XII: hCA XII over off-target hCA I; for Selectivity index (SI) II/XII: hCA XII over off-target hCA II; for Ki: stopped flow technique, mean from 3 different assays
T4 construct: made in house
Procedure: as §1

[5] = system: CNS cancer (SNB-75); assay: NCI single dose SRB screen, SNB-75; assay type: cell-based; conditions: Homo sapiens, SNB-75, 48 h, 10^−5 M single dose, read-out: GI% CNS cancer (SNB-75)
Procedure: (§2) Target compounds in series (A) and (B), were submitted to the National Cancer Institute (NCI) Developmental Therapeutic Program (www.dtp.nci.nih.gov), where they have been assessed, in vitro for their anticancer activity. Two series (A) and (B), were screened in a single dose (10 µM) versus full panel composed of 60 cancer cell lines, in accordance with protocol of drug evaluation branch, NCI, Bethesda. Sulforhodamine B (SRB) colorimetric assay was used to determine cell growth and viability,[40].
(§3) Protocol of Drug Evaluation Branch, NCI, Bethesda, was adopted in the antitumor assay. Assessment of cell growth and viability was carried out utilizing SRB assay and 48 h drug exposure protocol as previously reported,[40].

[6] = system: Renal cancer (UO-31); assay: NCI single dose SRB screen, UO-31; assay type: cell-based; conditions: Homo sapiens, UO-31, 48 h, 10^−5 M single dose, read-out: GI% Renal cancer (UO-31)
Procedure: as §2, §3

[7] = system: Breast cancer (MDA-MB-468); assay: NCI single dose SRB screen, MDA-MB-468; assay type: cell-based; conditions: Homo sapiens, MDA-MB-468, 48 h, 10^−5 M single dose, 48 h, SRB; read-out: GI% Breast cancer (MDA-MB-468)
Procedure: as §2, §3

[8] = system: Leukemia (SR); assay: NCI single dose SRB screen, SR; assay type: cell-based; conditions: 48 h, 10^−5 M single dose, read-out: GI% Leukemia (SR)
Procedure: as §2, §3

T4 sequence (O43570 25-354): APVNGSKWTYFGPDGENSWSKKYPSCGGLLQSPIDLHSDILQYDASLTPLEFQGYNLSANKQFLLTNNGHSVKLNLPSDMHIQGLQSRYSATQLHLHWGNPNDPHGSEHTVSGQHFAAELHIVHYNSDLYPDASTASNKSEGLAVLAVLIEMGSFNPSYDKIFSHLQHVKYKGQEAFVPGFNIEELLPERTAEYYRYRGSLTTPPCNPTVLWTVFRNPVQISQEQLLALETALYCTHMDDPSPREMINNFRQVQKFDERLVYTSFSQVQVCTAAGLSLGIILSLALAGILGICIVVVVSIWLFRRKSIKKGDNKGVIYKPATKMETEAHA
T1 sequence (P00915 whole entry): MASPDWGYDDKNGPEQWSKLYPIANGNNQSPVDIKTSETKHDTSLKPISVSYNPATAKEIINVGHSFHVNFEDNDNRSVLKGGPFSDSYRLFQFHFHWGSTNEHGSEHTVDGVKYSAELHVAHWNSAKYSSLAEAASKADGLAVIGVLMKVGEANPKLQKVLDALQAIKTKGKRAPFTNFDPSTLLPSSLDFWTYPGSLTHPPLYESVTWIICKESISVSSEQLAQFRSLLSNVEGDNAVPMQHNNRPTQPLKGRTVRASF

Compound | Ki [1] | Ki [2] | Selectivity index (SI) I/IX [3] | Selectivity index (SI) II/IX [3] | Ki [3] | Selectivity index (SI) I/XII [4] | Selectivity index (SI) II/XII [4] | Ki [4] | melting point | decrease of hCA II activity relative to the m-fluoro analogue [2] | inhibition at 10 µM [5] | inhibition at 10 µM [6] | inhibition at 10 µM [7] | inhibition at 10 µM [8]
CC1(C)N=C(N)N=C(N)N1c1ccc(S(=O)(=O)Nc2nccs2)cc1 (as salt: HCl) [Compound 5c, 4-(4,6-Diamino-2,2-dimethyl-1,2-dihydro-1,3,5-triazin-1-yl)-N-(thiazol-2-yl)benzene-1-sulfonamide.HCl] | – | – | – | – | – | – | – | – | 216 to 218 °C | – | – | – | – | –
NC1=NC2(CCCC2)N(c2ccc(S(=O)(=O)Nc3nccs3)cc2)C(N)=N1 (as salt: HCl) [Compound 6h, 4-{7,9-Diamino-6,8,10-triazaspiro[4.5]deca-7,9-dien-6-yl}-N-(1,3-thiazol-2-yl)benzene-1-sulfonamide.HCl] | – | – | – | – | – | – | – | – | 216 to 218 °C | – | – | – | – | –
NC1=NC2(CCCCC2)N(c2ccc(S(=O)(=O)Nc3nccs3)cc2)C(N)=N1 (as salt: HCl) [Compound 6i, 4-(2,4-Diamino-1,3,5-triazaspiro[5.5]undeca-2,4-dien-1-yl)-N-(1,3-thiazol-2-yl)benzene-1-sulfonamide.HCl] | – | – | – | – | – | – | – | – | 245 to 247 °C | – | – | – | – | –
NC1=NC2(CCCC2)N(c2ccc(S(N)(=O)=O)cc2)C(N)=N1 (as salt: HCl) [Compound 6a, 4-(7,9-Diamino-6,8,10-triazaspiro[4.5]deca-7,9-dien-6-yl) benzene-1-sulfonamide HCl] | – | – | – | – | – | – | – | – | 240 to 241 °C | – | – | – | – | –
NC1=NC2(CCCCCC2)N(c2ccc(S(=O)(=O)Nc3ccccn3)cc2)C(N)=N1 (as salt: HCl) [Compound 6g, 4-(2,4-Diamino-1,3,5-triazaspiro[5.6]dodeca-2,4-dien-1-yl)-N-(pyridin-2-yl)benzene-1-sulfonamide.HCl] | – | – | – | – | – | – | – | – | 239 to 241 °C | – | – | – | – | –
NC1=NC2(CCCCC2)N(c2ccc(S(=O)(=O)Nc3ccccn3)cc2)C(N)=N1 (as salt: HCl) [Compound 6e, 4-(2,4-Diamino-1,3,5-triazaspiro[5.5]undeca-2,4-dien-1-yl)-N-(pyridin-2-yl)benzene-1-sulfonamide.HCl] | – | – | – | – | – | – | – | – | 246 to 248 °C | – | – | – | – | –
CC1CCC2(CC1)N=C(N)N=C(N)N2c1ccc(S(N)(=O)=O)cc1 (stereo not shown) (as salt: HCl) [Compound 6c, 4-(2,4-Diamino-9-methyl-1,3,5-triazaspiro[5.5]undeca-2,4-dien-1-yl)benzene-1-sulfonamide.HCl] | – | – | – | – | – | – | – | – | 245 to 247 °C | – | – | – | – | –
NC1=NC2(CCCC2)N(c2ccc(S(=O)(=O)Nc3ccccn3)cc2)C(N)=N1 (as salt: HCl) [Compound 6d, 4-(7,9-Diamino-6,8,10-triazaspiro[4.5]deca-7,9-dien-6-yl}-N-(pyridin-2-yl)benzene-1-sulfonamide.HCl] | – | – | – | – | – | – | – | – | 221 to 223 °C | – | – | – | – | –

Now from value to molecule, other results behind:

Ki [1] | Ki [2] | Selectivity index (SI) I/IX [3] | Selectivity index (SI) II/IX [3] | Ki [3] | Selectivity index (SI) I/XII [4] | Selectivity index (SI) II/XII [4] | Ki [4] | melting point | decrease of hCA II activity relative to the m-fluoro analogue [2] | Compound | inhibition at 10 µM [5] | inhibition at 10 µM [6] | inhibition at 10 µM [7] | inhibition at 10 µM [8]
962 nM | 1940 nM | 0.7 | 1.4 | 1390 nM | 0.1 | 0.2 | 8680 nM | 281 to 283 °C | – | COc1ccc(/C=C(\C#N)c2nc(N)nc(Nc3ccc(S(N)(=O)=O)cc3)n2)cc1 [Compound 12c, 4-({4-Amino-6-[(1E)-1-cyano-2-(4-methoxyphenyl)eth-1-en-1-yl]-1,3,5-triazin-2-yl}amino)benzene-1-sulfonamide] | ≤ 10% | 14% | 22% | 16%
6840 nM | 384 nM | 23.2 | 1.3 | 295 nM | 1.5 | 0.1 | 4650 nM | 268 to 270 °C | – | CC1(C)N=C(N)N=C(Nc2ccc(S(N)(=O)=O)cc2)N1 [Compound 7a, 4-[(4-Amino-6,6-dimethyl-1,6-dihydro-1,3,5-triazin-2-yl)amino]benzene-1-sulfonamide] | ≤ 10% | 12% | ≤ 10% | ≤ 10%
159 nM | 697 nM | 0.8 | 3.6 | 195 nM | 0.07 | 0.3 | 2310 nM | 204 to 206 °C | – | Cc1ccc(/C=C(\C#N)c2nc(N)nc(Nc3ccc(S(N)(=O)=O)cc3)n2)cc1 [Compound 12g, 4-({4-Amino-6-[(1E)-1-cyano-2-(4-methylphenyl)eth-1-en-1-yl]-1,3,5-triazin-2-yl}amino)benzene-1-sulfonamide] | 15% | 11% | 11% | ≤ 10%
508 nM | 320 nM | 9.7 | 6.1 | 52.2 nM | 5.8 | 3.6 | 87.5 nM | 222 to 224 °C | – | N#C/C(=C\c1cccc(Cl)c1)c1nc(N)nc(Nc2ccc(S(N)(=O)=O)cc2)n1 [Compound 12h, 4-({4-Amino-6-[(1E)-2-(3-chlorophenyl)-1-cyanoeth-1-en-1-yl]-1,3,5-triazin-2-yl}amino)benzene-1-sulfonamide] | ≤ 10% | ≤ 10% | 11% | 27%
354 nM | 3160 nM | 0.2 | 1.4 | 2280 nM | 0.1 | 0.6 | 5430 nM | 270 to 272 °C | – | NC1=NC2(CCCCC2)NC(Nc2ccc(S(N)(=O)=O)cc2)=N1 [Compound 8b, 4-({4-Amino-1,3,5-triazaspiro[5.5]undeca-2,4-dien-2-yl}amino)benzene-1-sulfonamide] | 21% | ≤ 10% | 11% | 15%
2620 nM | 2000 nM | 2.5 | 2 | 1020 nM | 0.3 | 0.2 | 8210 nM | 234 to 236 °C | 8 folds | N#C/C(=C\c1cccc(Br)c1)c1nc(N)nc(Nc2ccc(S(N)(=O)=O)cc2)n1 [Compound 12b, 4-({4-Amino-6-[(1E)-2-(3-bromophenyl)-1-cyanoeth-1-en-1-yl]-1,3,5-triazin-2-yl}amino)benzene-1-sulfonamide] | 14% | 16% | 16% | 14%
94.4 nM | 3620 nM | 0.1 | 2.5 | 1420 nM | 0.01 | 0.5 | 7420 nM | 264 to 266 °C | – | NC1=NC2(CCCC2)NC(Nc2ccc(S(N)(=O)=O)cc2)=N1 [Compound 8a, 4-({9-Amino-6,8,10-triazaspiro[4.5]deca-7,9-dien-7-yl}amino)benzene-1-sulfonamide] | 14% | 17% | ≤ 10% | ≤ 10%
